In patent US20180243190A1, “ACTIVATORS OF NRF2-DEPENDENT PHOTOPROTECTION AND RELATED USES THEREOF” (THE ARIZONA BOARD OF REGENTS ON BEHALF OF THE UNIVERSITY OF …, priority 2015, published 2018):

Experiments:
[1] = system: NRF2; experiment: Immunoblot analysis in human primary melanocytes; type: cell-based; details: 0-40 μM
Procedure: Human cultured primary melanocytes (skin pigment producing cells) were treated with Bixin (0-40 μM) for up to 16 h. After 4 and 16 h, cells were harvested for immunoblot analysis testing for Nrf2 upregulation (Nrf2) GAPDH served as loading control.
Human cultured primary melanocytes (skin pigment producing cells) were treated with Bixin (0-40 μM) for 16 h. After 16 h, cells were harvested for immunoblot analysis testing for upregulation of cytoprotective Nrf2 targets including NQO1 and TrxR1. GAPDH served as loading control.

[2] = system: cutaneous NRF2; experiment: Cutaneous NRF2 activation after systemic administration (immunoblot, IHC, RT-PCR of skin); type: in vivo, SKH-1 mice
Description: To explore the potential systemic photoprotective activity of bixin in a murine skin sunburn model, the feasibility of upregulating cutaneous NRF2 activity by systemic administration was first examined. It has been reported earlier that efficient cutaneous accumulation of dietary carotenoids requires prolonged nutritional supplementation over weeks and that pharmacokinetic parameters of cutaneous delivery of dietary carotinoids differ between humans and mice. Therefore, in order to circumvent the more complex pharmacokinetics associated with dietary supplementation, an intraperitoneal (i.p.) route for bixin systemic administration followed by examination of cutaneous NRF2 status was chosen. After i.p. injection of bixin (200 mg/kg) performed in Nrf2^+/+ and Nrf2^−/− mice, plasma was collected at 0, 1, 2, 4, 8, 16, 24, 48 and 72 h after injection followed by HPLC-photodiode array detection (FIG. 4A-C). […] Next, efficacy of various bixin treatment regimens (differing with regard to total dose and time after injection) for maximum activation of the NRF2 pathway in murine skin was determined (FIG. 4D).
Next, the feasibility of bixin-induced cutaneous protection was studied in a solar UV photodamage model. Nrf2^+/+ and Nrf2^−/− mice were i.p. injected with either corn oil (carrier control) or bixin (200 mg/kg) 48 h before solar UV exposure (240 mJ/cm^2 UVB; 4.4 J/cm^2 UVA). 24 h after UV exposure back skin tissue was then collected followed by immunohistochemical (IHC) analysis. […] Moreover, UV exposure alone activated the NRF2 response in murine skin, effects not detectable in Nrf2^−/− mice (FIG. 5).
Total RNA was extracted from HaCaT cells and mouse skin tissues using TRIzol (Invitrogen). Equal amounts of mRNA were used to generate cDNA using the M-MLV Reverse Transcriptase synthesis kit according to the manufacturer's instructions (Promega). RT-PCR and primer sequences of NRF2, KEAP1, GCLM, AKR1C1 and GAPDH were described previously to evaluate mRNA expression using the LightCycler 480 system (Roche). Quantification of cDNA amount for mouse Nrf2, Keap1, Gclm, and Akr1c1 in each skin tissue sample was performed using the KAPA SYBR FAST qPCR Kit (Kapa Biosystems).
Nrf2^+/+ and Nrf2^−/− SKH-I mice were obtained by breeding Nrf2 heterozygous mice generated by back-crossing Nrf2^−/− C57BL/6 mice onto the SKH-1 hairless mouse genetic background for at least six generations (JAX® Mice, The Jackson Laboratory). All animals received water and food ad libitum and were handled according to the Guide for the Care and Use of Laboratory Animals; the protocols were approved by the University of Arizona Institutional Animal Care and Use Committee. Eight-week-old Nrf2^+/+ and Nrf2^−/− mice were randomly allocated into four groups (n=6): (i) control (corn oil); (ii) bixin (200 mg/kg, dissolved in corn oil); (iii) UV; (iv) bixin+UV. Bixin was administered through intraperitoneal (i.p.) injection 48 h before UV exposure.
24 h after UV exposure, the mice were euthanized and back skin was collected and divided into two parts: one part was frozen in liquid nitrogen for total RNA extraction and protein analysis; the other part was fixed in 10% buffered formalin and embedded in paraffin for histological and immunohistochemical analyses. Tissue sections (4 μm) were baked and deparaffinized. Hematoxylin and eosin (H&E) staining was performed for pathological examination. […]

[3] = system: HaCaT keratinocytes
Procedure: Photodynamic induction of intracellular oxidative stress and its suppression by bixin pretreatment was analyzed by flow cytometry using 2′,7′-dichlorodihydrofluorescein diacetate (DCFH-DA) as a sensitive non-fluorescent precursor dye according to a published standard procedure [14]. HaCaT keratinocytes were pretreated with bixin (1 or 24 h) and then exposed to singlet oxygen generated by dye-sensitization as described earlier [14, 44]. In brief, toluidine blue 0 (TB) photosensitization was achieved using a ‘Sylvania 15 W Cool White’ light tube delivering visible light at an irradiance of 4.29 mW/cm^2. The irradiance in the visible region (400-700 nm) was determined using a spectroradiometer, Model 754 from Optronic Laboratories (Orlando, Fla.). Cells received visible radiation at a distance of 50 mm from the source through the polystyrene lids of cell culture dishes. For ^1O2 exposure, cells were washed with PBS and immediately exposed to the combined action of visible light (0.3 J/cm^2) and TB (3.3 μM) in PBS. Following 5 min incubation in the dark after irradiation, cells were washed with PBS. Cells were then incubated for 60 min in the dark (37° C., 5% CO2) with culture medium containing DCFH-DA (5 μg/mL final concentration). Cells were then washed with PBS, harvested by trypsinization, resuspended in 300 μl PBS, and analyzed by flow cytometry.

[4] = system: NRF2; experiment: Immunoblot analysis of NRF2 and NRF2 targets in HEKs; type: cell-based, human; details: ≤20 μM, 24 h, exposure time ≤24 h at 20 μM
Procedure: Experiments were performed according to previously published procedures. Cells were harvested in sample buffer (50 mM Tris-HCl [pH 6.8], 2% sodium dodecyl sulfate (SDS), 10% glycerol, 100 mM dithiothreitol (DTT), and 0.1% bromophenol blue), boiled and sonicated. Total cell lysates were resolved by SDS-PAGE and subjected to immunoblot analyses with the indicated antibodies. For the ubiquitination assay, cells were cotransfected with expression vectors for NRF2 and HA-tagged ubiquitin (HA-Ub). Cells were left untreated or treated with either 5 μM sulforaphane (SF) or 40 μM bixin along with 10 μM MG132 for 4 h. Cells were harvested in buffer containing 2% SDS, 150 mM NaCl, 10 mM Tris-HCl (pH 8.0), and 1 mM DTT and boiled immediately. For immunoprecipitation, 1 μg of NRF2 antibody was incubated with the cell lysates at 4° C. overnight with protein A agarose beads (Invitrogen). Immunoprecipitated complexes were washed four times with RIPA buffer and eluted in sample buffer by boiling for 5 min. Samples were resolved by SDS-PAGE and immunoblotted with HA antibody. To measure the half-life of NRF2, HaCaT cells were either left untreated or treated with 5 μM bixin for 4 h, then 50 μM cycloheximide was added to block protein synthesis. […] The relative intensity of the bands was quantified using the ChemiDoc CRS gel documentation system and Quantity One software (BioRad).

[5] = system: NRF2; experiment: Immunoblot analysis (NRF2/KEAP1/targets) in HaCaT keratinocytes; type: cell-based, human
Procedure: Experiments were performed according to previously published procedures. Cells were harvested in sample buffer (50 mM Tris-HCl [pH 6.8], 2% sodium dodecyl sulfate (SDS), 10% glycerol, 100 mM dithiothreitol (DTT), and 0.1% bromophenol blue), boiled and sonicated. Total cell lysates were resolved by SDS-PAGE and subjected to immunoblot analyses with the indicated antibodies. For the ubiquitination assay, cells were cotransfected with expression vectors for NRF2 and HA-tagged ubiquitin (HA-Ub). Cells were left untreated or treated with either 5 μM sulforaphane (SF) or 40 μM bixin along with 10 μM MG132 for 4 h. Cells were harvested in buffer containing 2% SDS, 150 mM NaCl, 10 mM Tris-HCl (pH 8.0), and 1 mM DTT and boiled immediately. For immunoprecipitation, 1 μg of NRF2 antibody was incubated with the cell lysates at 4° C. overnight with protein A agarose beads (Invitrogen). Immunoprecipitated complexes were washed four times with RIPA buffer and eluted in sample buffer by boiling for 5 min. Samples were resolved by SDS-PAGE and immunoblotted with HA antibody. To measure the half-life of NRF2, HaCaT cells were either left untreated or treated with 5 μM bixin for 4 h, then 50 μM cycloheximide was added to block protein synthesis. Total cell lysates were collected at different time points and subjected to immunoblot analysis with NRF2 antibody. The relative intensity of the bands was quantified using the ChemiDoc CRS gel documentation system and Quantity One software (BioRad).

COC(=O)/C=C/C(C)=C\C=C\C(C)=C\C=C\C=C(C)\C=C\C=C(C)\C=C\C(=O)O [bixin]
Nrf2 upregulation in melanocytes ([1]; 4 and 16 h): efficient Nrf2 activator
upregulation of cytoprotective Nrf2 targets NQO1 and TrxR1 in melanocytes ([1]; 16 h): efficient activator
skin mRNA levels of Nrf2 ([2]; 200 mg/kg i.p.): did not increase
skin protein or mRNA levels of Keap1 ([2]; 200 mg/kg i.p.): no effects
upregulation of cutaneous protein levels of NRF2 and its targets (GCLM and AKR1C1), comparison of regimens ([2]; 200 mg/kg, 72 h after injection, Nrf2+/+ mice): most effective
cutaneous NRF2 pathway (NRF2, GCLM, AKR1C1 protein and mRNA) ([2]; Nrf2+/+ mice, 200 mg/kg i.p.): dramatically induced
activation of NRF2 pathway related activity within skin cells ([2]; dosage amounts less than 10 mg/kg): insufficient
DCF fluorescence after compound only (no dye sensitization) [3]: did not cause an increase
protection against 1O2-induced oxidative stress ([3]; HaCaT, 20 μM, 1 h preincubation): without protective effects
suppression of 1O2-induced increase in DCF fluorescence ([3]; HaCaT, 20 μM, 24 h preincubation): efficiently suppressed
protein levels of NRF2 and NRF2 targets (NQO1, AKR1C2, HO-1, TrxR, GCLM, SRXN1, FTH1) [4]: increased protein levels
NRF2 target proteins GCLM and AKR1C1 [5]: upregulated
bixin-induced Nrf2 upregulation after 24 h preincubation using NAC [5]: did not attenuate
duration of NRF2 upregulation ([5]; bixin 20 μM): sustained over the course of the 24 h treatment
time to detectable induction of NRF2 protein levels ([5]; bixin 20 μM): ≤ 2 h
KEAP1 protein levels ([5]; bixin 20 μM, 0-48 h): no changes
duration of GCLM upregulation ([5]; bixin 20 μM, 48 h): persisted over an extended period
bixin-induced upregulation of Nrf2 protein levels under cotreatment with anti-oxidants (tiron, trolox, NAC) ([5]; bixin 40 μM, 4 h, 1 h antioxidant pretreatment): not attenuated
